Tests used:
Assay type in all cases: in vivo
[1] = test system: pigweed (Amaranthus retroflexus); test: Test A pre-/postemergence: pigweed; details: for Pigweed plant response rating: Postemergence; for Plant response rating, Pigweed: Preemergence
Outline: (§1)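 Injury was scored visually on a 0 (no effect) to 100 (complete control) scale versus untreated controls roughly ten days after treatment in the greenhouse. Compounds, formulated in surfactant-containing non-phytotoxic solvent, went on as soil-directed preemergence spray or postemergence to one- to two-leaf plants 2–10 cm tall.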

[2] = test system: velvetleaf (Abutilon theophrasti); test: Test A pre-/postemergence: velvetleaf; details: for Velvetleaf plant response rating: Postemergence; for Plant response rating, Velvetleaf: Preemergence
Outline: as §1

rice (Oryza sativa) = test: Test C flooded paddy test: rice; details: scale 0 to 100 (0 no effect, 100 complete control)
Outline: (§2)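 Rating: visual, 0–100 (100 = complete control), versus untreated controls after 13 to 15 greenhouse days. Treatment went into paddy water held at 3 cm over the soil, on plants grown to two leaves.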

[3] = test system: foxtail, giant (giant foxtail, Setaria faberii); test: Test A pre-/postemergence: foxtail, giant; details: for Foxtail, Giant plant response rating: Postemergence; for Plant response rating, Foxtail, Giant: Preemergence
Outline: as §1

[4] = test system: morningglory (Ipomoea spp.); test: Test A pre-/postemergence: morningglory; details: for Morningglory plant response rating: Postemergence; for Plant response rating, Morningglory: Preemergence
Outline: as §1

[5] = test system: sedge, umbrella (small-flower umbrella sedge, Cyperus difformis); test: Test C flooded paddy test: sedge, umbrella; details: scale 0 to 100 (0 no effect, 100 complete control)
Outline: as §2

[6] = test system: barnyardgrass (Echinochloa crus-galli); test: Test A pre-/postemergence: barnyardgrass; details: for Barnyardgrass plant response rating: Postemergence; for Plant response rating, Barnyardgrass: Preemergence
Outline: as §1

[7] = test system: ducksalad (Heteranthera limosa); test: Test C flooded paddy test: ducksalad; details: scale 0 to 100 (0 no effect, 100 complete control)
Outline: as §2

corn (Zea mays) = test: Test A pre-/postemergence: corn; details: for Corn plant response rating: Postemergence; for Plant response rating, Corn: Preemergence
Outline: as §1

[8] = test system: barnyardgrass (Echinochloa crus-galli); test: Test C flooded paddy test: barnyardgrass; details: scale 0 to 100 (0 no effect, 100 complete control)
Outline: as §2

[9] = test system: wheat (Triticum aestivum); test: Test A pre-/postemergence: wheat; details: for Wheat plant response rating: Postemergence; for Plant response rating, Wheat: Preemergence
Outline: as §1

[10] = test system: crabgrass, large (large crabgrass, Digitaria sanguinalis); test: Test A pre-/postemergence: crabgrass, large; details: for Crabgrass, Large plant response rating: Postemergence; for Plant response rating, Crabgrass, Large: Preemergence
Outline: as §1

[11] = 125 g ai/ha, 0 to 100 scale, 0 is no effect, 100 is complete control
[12] = 500 g ai/ha, visual rating on 0 to 100 scale (0 no effect, 100 complete control), approximately ten days
[13] = 125 g ai/ha, 0 to 100 scale (0 no effect, 100 complete control)
[14] = 500 g ai/ha, 0 to 100 scale, 0 is no effect, 100 is complete control
[15] = Flood (flooded paddy test), 62 g ai/ha, visual rating after 13 to 15 days
[16] = Flood (flooded paddy test), 250 g ai/ha, visual rating after 13 to 15 days
[17] = Flood (flooded paddy test), 125 g ai/ha, visual rating after 13 to 15 days

Cc1nn(-c2cccc(C(F)(F)F)c2)nc1Oc1cc(C(F)(F)F)ncn1 [Compound 38]
20: Plant response rating, Foxtail, Giant [3, 14] | Crabgrass, Large plant response rating [10, 11]
0: Pigweed plant response rating [1, 11] | Plant response rating, Pigweed [1, 13] | Velvetleaf plant response rating [2, 11] | Plant response rating, Velvetleaf [2, 13] | Plant response rating, Velvetleaf [2, 14] | Plant response rating, Rice (rice (Oryza sativa); [15]) | Plant response rating, Rice (rice (Oryza sativa); [16]) | Foxtail, Giant plant response rating [3, 11] | Foxtail, Giant plant response rating [3, 12] | Plant response rating, Foxtail, Giant [3, 13] | Morningglory plant response rating [4, 11] | Morningglory plant response rating [4, 12] | Plant response rating, Morningglory [4, 13] | Plant response rating, Morningglory [4, 14] | Plant response rating, Sedge, Umbrella [5, 15] | Plant response rating, Sedge, Umbrella [5, 16] | Barnyardgrass plant response rating [6, 11] | Barnyardgrass plant response rating [6, 12] | Plant response rating, Barnyardgrass [6, 13] | Plant response rating, Barnyardgrass [6, 14] | Plant response rating, Ducksalad [7, 15] | Plant response rating, Ducksalad [7, 16] | Corn plant response rating (corn (Zea mays); [11]) | Corn plant response rating (corn (Zea mays); [12]) | Plant response rating, Corn (corn (Zea mays); [13]) | Plant response rating, Corn (corn (Zea mays); [14]) | Plant response rating, Barnyardgrass [8, 15] | Plant response rating, Barnyardgrass [8, 16] | Wheat plant response rating [9, 11] | Wheat plant response rating [9, 12] | Plant response rating, Wheat [9, 13] | Plant response rating, Wheat [9, 14]
60: Velvetleaf plant response rating [2, 12] | Plant response rating, Crabgrass, Large [10, 14]
30: Pigweed plant response rating [1, 12]
10: Plant response rating, Pigweed [1, 14]
50: Crabgrass, Large plant response rating [10, 12] | Plant response rating, Crabgrass, Large [10, 13]

Cc1nn(-c2cccc(C(F)(F)F)c2)nc1Oc1ccnc(C(F)(F)F)c1 [Compound 40]
70: Velvetleaf plant response rating [2, 11] | Morningglory plant response rating [4, 11] | Plant response rating, Sedge, Umbrella ([5]; Flood, 31 g ai/ha) | Plant response rating, Ducksalad [7, 16]
100: Pigweed plant response rating [1, 11] | Pigweed plant response rating [1, 12] | Plant response rating, Pigweed [1, 14] | Velvetleaf plant response rating [2, 12] | Plant response rating, Foxtail, Giant [3, 13] | Plant response rating, Foxtail, Giant [3, 14] | Morningglory plant response rating [4, 12] | Plant response rating, Crabgrass, Large [10, 13] | Plant response rating, Crabgrass, Large [10, 14]
40: Barnyardgrass plant response rating [6, 12]
10: Plant response rating, Velvetleaf [2, 13] | Plant response rating, Rice (rice (Oryza sativa); [15]) | Plant response rating, Morningglory [4, 14] | Corn plant response rating (corn (Zea mays); [11]) | Plant response rating, Corn (corn (Zea mays); [14])
60: Foxtail, Giant plant response rating [3, 11] | Plant response rating, Ducksalad [7, 17]
20: Plant response rating, Velvetleaf [2, 14] | Plant response rating, Rice (rice (Oryza sativa); [17]) | Plant response rating, Barnyardgrass [8, 15] | Plant response rating, Barnyardgrass ([8]; Flood, 31 g ai/ha) | Wheat plant response rating [9, 11] | Plant response rating, Wheat [9, 14]
30: Barnyardgrass plant response rating [6, 11] | Plant response rating, Barnyardgrass [6, 13] | Plant response rating, Ducksalad [7, 15] | Plant response rating, Ducksalad ([7]; Flood, 31 g ai/ha) | Corn plant response rating (corn (Zea mays); [12]) | Plant response rating, Barnyardgrass [8, 17] | Plant response rating, Barnyardgrass [8, 16] | Wheat plant response rating [9, 12]
0: Plant response rating, Rice (rice (Oryza sativa); Flood, 31 g ai/ha) | Plant response rating, Morningglory [4, 13] | Plant response rating, Corn (corn (Zea mays); [13]) | Plant response rating, Wheat [9, 13]
90: Plant response rating, Pigweed [1, 13] | Foxtail, Giant plant response rating [3, 12] | Crabgrass, Large plant response rating [10, 12]
80: Plant response rating, Sedge, Umbrella [5, 17] | Plant response rating, Sedge, Umbrella [5, 16] | Plant response rating, Barnyardgrass [6, 14] | Crabgrass, Large plant response rating [10, 11]
75: Plant response rating, Sedge, Umbrella [5, 15]
25: Plant response rating, Rice (rice (Oryza sativa); [16])

Cc1nn(-c2ccc([N+](=O)[O-])cc2)nc1C(=O)c1cccc(C(F)(F)F)c1 [Compound 41]
20: Plant response rating, Pigweed [1, 13] | Foxtail, Giant plant response rating [3, 12] | Plant response rating, Barnyardgrass [6, 14] | Corn plant response rating (corn (Zea mays); [12]) | Plant response rating, Crabgrass, Large [10, 13]
40: Plant response rating, Foxtail, Giant [3, 13]
30: Pigweed plant response rating [1, 11] | Crabgrass, Large plant response rating [10, 12]
50: Plant response rating, Pigweed [1, 14] | Velvetleaf plant response rating [2, 12]
0: Plant response rating, Rice (rice (Oryza sativa); [15]) | Plant response rating, Rice (rice (Oryza sativa); [17]) | Plant response rating, Rice (rice (Oryza sativa); [16]) | Plant response rating, Rice (rice (Oryza sativa); Flood, 31 g ai/ha) | Plant response rating, Morningglory [4, 13] | Plant response rating, Sedge, Umbrella [5, 15] | Plant response rating, Sedge, Umbrella [5, 17] | Plant response rating, Sedge, Umbrella [5, 16] | Plant response rating, Sedge, Umbrella ([5]; Flood, 31 g ai/ha) | Plant response rating, Ducksalad [7, 15] | Plant response rating, Ducksalad [7, 17] | Plant response rating, Ducksalad [7, 16] | Plant response rating, Ducksalad ([7]; Flood, 31 g ai/ha) | Plant response rating, Corn (corn (Zea mays); [13]) | Plant response rating, Corn (corn (Zea mays); [14]) | Plant response rating, Barnyardgrass [8, 15] | Plant response rating, Barnyardgrass [8, 17] | Plant response rating, Barnyardgrass [8, 16] | Plant response rating, Barnyardgrass ([8]; Flood, 31 g ai/ha) | Wheat plant response rating [9, 11] | Plant response rating, Wheat [9, 13] | Plant response rating, Wheat [9, 14]
10: Velvetleaf plant response rating [2, 11] | Plant response rating, Velvetleaf [2, 13] | Plant response rating, Velvetleaf [2, 14] | Foxtail, Giant plant response rating [3, 11] | Morningglory plant response rating [4, 11] | Morningglory plant response rating [4, 12] | Plant response rating, Morningglory [4, 14] | Barnyardgrass plant response rating [6, 11] | Barnyardgrass plant response rating [6, 12] | Plant response rating, Barnyardgrass [6, 13] | Corn plant response rating (corn (Zea mays); [11]) | Wheat plant response rating [9, 12] | Crabgrass, Large plant response rating [10, 11]
70: Plant response rating, Foxtail, Giant [3, 14] | Plant response rating, Crabgrass, Large [10, 14]
80: Pigweed plant response rating [1, 12]
